Measurements: ChEMBL document CHEMBL3779794, “Efficient synthesis and activity of beneficial intestinal flora of two lactulose-derived oligosaccharides” (Eur J Med Chem, 2016)
Activity calls are given as the source filed them. The rule behind the calls is not given here.

Test system: Lactobacillus acidophilus
Experiment: Prebiotic activity in Lactobacillus acidophilus in simulated intestinal fluid after 1 to 3 hrs
Format: functional

Structure (SMILES)	Activity
OC[C@H]1O[C@@H](O[C@H]2[C@H](O)[C@H](O)CO[C@]2(O)CO)[C@H](O)[C@@H](O)[C@H]1O	Active
OC[C@H]1O[C@@H](O[C@@H]2[C@H](O)CO[C@](O)(CO)[C@H]2O)[C@H](O)[C@@H](O)[C@H]1O	Active
